Data as given in patent publication EP4635944A1, “2-AZABICYCLO[3.1.1]HEPTANE COMPOUND” (Daiichi Sankyo Company, Limited, priority 2022, dated 2024).

Tests used:
[1] = Evaluation of ERM production (GSH adduct detection in human liver microsomes); type: in vitro ADME; conditions: test compound 500 µM, human liver microsomes 2 mg/mL, GSH/SI-GSH, 37°C for 60 minutes; negative = no metabolite GSH adduct pair peak
Protocol: Evaluation of ERM production from OX2R agonist
The test compound (final concentration was 500 µM, dissolved in DMSO/acetonitrile = 1/9), pooled human liver microsomes (final concentration was 2 mg/mL), L-glutathione reduced (GSH, final concentration was 0.5 mM), potassium phosphate buffer (pH 7.4, final concentration was 100 mM), and stable isotope labeled GSH (SI-GSH, final concentration was 0.5 mM) were admixed and preincubated at 37°C for 3 minutes. Thereafter, a mixed solution of glucose-6-phosphate (final concentration was 25 mM), β-nicotinamide adenine dinucleotide phosphate (final concentration was 0.25 mM), glucose-6-phosphate dehydrogenase (final concentration was 2 U/mL), and magnesium chloride (final concentration was 10 mM) was added, and incubation was performed at 37°C for 60 minutes. After the incubation, the reaction was stopped by adding a 2-fold volume of acetonitrile. A portion of the supernatant after centrifugation (about 1200 × g, 4°C, 15 minutes) was injected into a liquid chromatograph quadrupole time-of-flight mass spectrometer (Q-Tof) for analysis. The mass number of metabolites, GSH adduct and SI-GSH adduct, predicted from the chemical structural formula of the test compound was calculated, and the presence of the corresponding peaks in the measurement sample was checked. Peaks with the same retention time and approximately equal peak area of the detected peaks of the metabolites, GSH adduct and SI-GSH adduct, were extracted as pair peaks. The presence of a pair peak determined to be a metabolite GSH adduct was considered positive for ERM production potential, whereas the absence of such a peak was considered negative for ERM production potential.

human OX2R = target: T1, human OX2R (Homo sapiens, UniProt O43614); assay: Evaluation of OX2R agonist activity (intracellular calcium, CHO-K1 cells with forced expression of human OX2R); type: cell-based; conditions: CHO-K1 cells expressing human OX2R; 100% = 5 µM of the reference compound; read-out: hOX2R EC50
T1 construct: host or cells: CHO-K1 (Chinese Hamster Ovary K1)
T1 sequence (O43614 1-444): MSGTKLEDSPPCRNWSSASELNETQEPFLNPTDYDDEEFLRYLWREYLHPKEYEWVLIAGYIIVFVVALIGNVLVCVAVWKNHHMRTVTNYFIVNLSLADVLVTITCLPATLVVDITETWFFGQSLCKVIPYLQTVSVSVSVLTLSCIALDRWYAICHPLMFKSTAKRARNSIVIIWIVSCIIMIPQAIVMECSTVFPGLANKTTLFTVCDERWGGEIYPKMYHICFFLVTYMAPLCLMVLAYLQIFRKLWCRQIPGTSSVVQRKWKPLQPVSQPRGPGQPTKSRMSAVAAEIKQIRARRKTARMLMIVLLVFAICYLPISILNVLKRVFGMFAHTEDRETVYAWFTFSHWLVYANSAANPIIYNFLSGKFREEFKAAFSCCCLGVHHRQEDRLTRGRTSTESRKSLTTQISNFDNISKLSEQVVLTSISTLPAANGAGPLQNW
Procedure, shortened: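 Cells seeded 7500/well, cultured 24 h, loaded with Fluo 4-AM (2.5 µg/mL final) plus probenecid for 30 min. Calcium response read as 480/540 nm excitation ratio; max–min signal 5–7 s after compound addition, normalized to buffer (0%) and 5 µM reference agonist (100%). EC50 from concentration series; 0.5% DMSO final.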

[2] = Evaluation of metabolic stability in human liver microsomes; type: in vitro ADME; conditions: for Human metabolic stability Residual ratio (%): test compound 1 µM, human liver microsomes 0.5 mg/mL, 30 minutes at 37°C; for metabolic stability compared to the corresponding compounds that were not deuterated: human liver microsomes, 30 minutes, deuterated at specific positions
Protocol: Evaluation of metabolic stability of OX2R agonist
The test compound (final concentration was 1 µM, dissolved in DMSO/acetonitrile = 1/99), pooled human liver microsomes (final concentration was 0.5 mg/mL), and sodium phosphate buffer (pH 7.4, final concentration was 100 mM) were admixed and preincubated at 37°C for 15 minutes. Thereafter, a mixed solution of glucose-6-phosphate (final concentration was 10 mM), glucose-6-phosphate dehydrogenase (final concentration was 1 U/mL), and magnesium chloride (final concentration was 3.3 mM) was added and a certain amount of the mixture was collected. Then, an acetonitrile/methanol mixed solution (75/25, v/v) containing a 4.5-fold volume of internal standard substances (final concentrations: phenacetin: 1 ng/mL, niflumic acid: 15 ng/mL, furosemide: 20 ng/mL) was added to stop the reaction (0 min sample). Subsequently, β-nicotinamide adenine dinucleotide phosphate (final concentration was 1 mM) was added, and after 30 minutes of incubation at 37°C, a certain amount of the mixture was collected, to which an acetonitrile/methanol mixed solution (75/25, v/v) containing a 4.5-fold volume of the internal standard substances was added to stop the reaction (30 min sample). For both samples, a portion of the supernatant after centrifugation (about 1200 × g, 4°C, 15 minutes) was injected into a liquid chromatograph tandem quadrupole mass spectrometer (LC-MS/MS) for analysis. The metabolic stability was evaluated by comparing the test compound/internal standard substance ratio of the 30 min sample with the 0 min sample and calculating the residual ratio of the test compound. […]

male C57BL/6J mice = assay: Acceleration of locomotor activity (arousal effect in mice); type: in vivo; conditions: 10 mg/kg of body weight, orally; cumulative counts for one hour after administration; solvent administration group = 100%
Protocol: Acceleration of locomotor activity
Acceleration of locomotor activity in rodents can be an indicator of arousal. An experiment was carried out on the arousal effect of the test compound in mice, using the acceleration of locomotor activity as the indicator. For the experiment, male C57BL/6J mice (6 weeks old, THE JACKSON LABORATORY JAPAN, INC., 6 to 8 animals per group) were used. Mice were allowed to acclimate for 1 hour or longer in the rearing cage in the room where the measurement was to be performed, until the experiment. After the acclimation, the mice were placed in a locomotor activity measuring apparatus (the behavior analyzer SCANET-40 series, Melquest Ltd.) equipped with an infrared sensor to start the measurement. After 2 hours, either the solvent or the test compound (10 mg/kg of body weight) was orally administered, and the mice were immediately returned to the measuring apparatus and the measurement was further performed for 2 hours. The test compound was suspended in the 0.5 w/v% methylcellulose 400 solution (Wako Pure Chemical Industries, Ltd., Japan). The locomotor activity was counted every 5 minutes, and the cumulative counts for one hour after administration were calculated for each treatment group. The proportion of the locomotor activity of the test compound administration group to the solvent administration group whose locomotor activity was defined as 100% was calculated and shown in Table 2.

ERM production potential [1]	Structure (SMILES)	EC50 (human OX2R)	Human metabolic stability Residual ratio (%) [2]	metabolic stability compared to the corresponding compounds that were not deuterated [2]	Locomotor activity (%) (male C57BL/6J mice)
negative	C[C@@H](O)C(=O)N1C2CC(C2)[C@H](NS(C)(=O)=O)[C@@H]1Cc1cccc(-c2ccn(C)n2)c1F [Example 32, N-{(3S,4S)-3-[2-Fluoro-3-(1-methyl-1H-pyrazol-3-yl)benzyl]-2-[(2R)-2-hydroxypropanoyl]-2-azabicyclo[3.1.1]heptan-4-yl}methanesulfonamide]	535 nM			
negative	C[C@@H](O)C(=O)N1C2CC(C2)[C@H](NS(C)(=O)=O)[C@@H]1Cc1cc(F)cc(-c2ccccc2)c1F [Example 58, N-{(3S,4S)-3-[(2,5-Difluoro[biphenyl]-3-yl)methyl]-2-[(2R)-2-hydroxypropanoyl]-2-azabicyclo[3.1.1]heptan-4-yl}methanesulfonamide]	38 nM	34%		
negative	CS(=O)(=O)N[C@H]1C2CC(C2)N(C(=O)C2(O)CCC2)[C@H]1Cc1cccc(-c2ccccc2)c1F [Example 62, N-{(3S,4S)-3-[(2-Fluoro[biphenyl]-3-yl)methyl]-2-[(1-hydroxycyclobutyl)carbonyl]-2-azabicyclo[3.1.1]heptan-4-yl}methanesulfonamide]	14 nM			
negative	CC(C)(O)C(=O)N1C2CC(F)(C2)[C@H](NS(C)(=O)=O)[C@@H]1Cc1cc(F)cc(-c2ccccc2)c1F [Example 74, N-[(3S,4R)-3-[(2,5-Difluoro[biphenyl]-3-yl)methyl]-5-fluoro-2-(2-hydroxy-2-methylpropanoyl)-2-azabicyclo[3.1.1]heptan-4-yl]methanesulfonamide]	72 nM			
negative	CC(C)(O)C(=O)N1C2CC(F)(C2)[C@H](NS(C)(=O)=O)[C@@H]1Cc1cc(F)cc(-c2cccc(Cl)c2)c1F [Example 77, N-[(3S,4R)-3-[(3'-Chloro-2,5-difluoro[biphenyl]-3-yl)methyl]-5-fluoro-2-(2-hydroxy-2-methylpropanoyl)-2-azabicyclo[3.1.1]heptan-4-yl]methanesulfonamide]	46 nM			

The remaining lines, values behind:

Structure (SMILES)	ERM production potential [1]	EC50 (human OX2R)	Human metabolic stability Residual ratio (%) [2]	metabolic stability compared to the corresponding compounds that were not deuterated [2]	Locomotor activity (%) (male C57BL/6J mice)
CC(C)(O)C(=O)N1C2CC(C2)[C@H](NS(C)(=O)=O)[C@@H]1Cc1cccc(-c2ccccc2)c1F [Example 10, N-[(3S,4S)-3-[(2-Fluoro[biphenyl]-3-yl)methyl]-2-(2-hydroxy-2-methylpropanoyl)-2-azabicyclo[3.1.1]heptan-4-yl]methanesulfonamide]	negative	297 nM			
[2H]C([2H])([2H])[C@@]([2H])(O)C(=O)N1C2CC(C2)[C@H](NS(C)(=O)=O)[C@@H]1Cc1cccc(-c2ccccc2)c1F [Example 76, N-{(3S,4S)-3-[(2-Fluoro[biphenyl]-3-yl)methyl]-2-[(2R)-2-hydroxy(^2H4)propanoyl]-2-azabicyclo[3.1.1]heptan-4-yl}methanesulfonamide]	negative	18 nM	59%	improved metabolic stability	
[2H]C([2H])([2H])[C@@]([2H])(O)C(=O)N1C2CC(F)(C2)[C@H](NS(C)(=O)=O)[C@@H]1Cc1cc(F)cc(-c2ccccc2)c1F [Example 87, N-{(3S,4R)-3-[(2,5-Difluoro[biphenyl]-3-yl)methyl]-5-fluoro-2-[(2R)-2-hydroxy(^2H4)propanoyl]-2-azabicyclo[3.1.1]heptan-4-yl}methanesulfonamide]		30 nM	70%	improved metabolic stability	221%
[2H]C([2H])([2H])[C@@]([2H])(O)C(=O)N1C2CC(C2)[C@H](NS(C)(=O)=O)[C@@H]1Cc1cc(F)cc(-c2ccccc2)c1F [Example 88, N-{(3S,4S)-3-[(2,5-Difluoro[biphenyl]-3-yl)methyl]-2-[(2R)-2-hydroxy(^2H4)propanoyl]-2-azabicyclo[3.1.1]heptan-4-yl}methanesulfonamide]	negative	43 nM	59%	improved metabolic stability	
[2H]C([2H])([2H])[C@@]([2H])(O)C(=O)N1C2CC(F)(C2)[C@H](NS(C)(=O)=O)[C@@H]1Cc1cccc(-c2ccccc2)c1F [Example 89, N-{(3S,4R)-5-Fluoro-3-[(2-fluoro[biphenyl]-3-yl)methyl]-2-[(2R)-2-hydroxy(^2H4)propanoyl]-2-azabicyclo[3.1.1]heptan-4-yl}methanesulfonamide]		18 nM	75%	improved metabolic stability	412%
[2H]C([2H])([2H])[C@@]([2H])(O)C(=O)N1C2CC(C2)[C@H](NS(=O)(=O)CC)[C@@H]1Cc1cccc(-c2ccccc2)c1F [Example 94, N-{(3S,4S)-3-[(2-Fluoro[biphenyl]-3-yl)methyl]-2-[(2R)-2-hydroxy(^2H4)propanoyl]-2-azabicyclo[3.1.1]heptan-4-yl}ethanesulfonamide]	negative	22 nM			
[2H][C@](C)(O)C(=O)N1C2CC(C2)[C@H](NS(C)(=O)=O)[C@@H]1Cc1cccc(-c2ccccc2)c1F [Example 97, N-{(3S,4S)-3-[(2-Fluoro[biphenyl]-3-yl)methyl]-2-[(2R)-2-hydroxy(2-^2H)propanoyl]-2-azabicyclo[3.1.1]heptan-4-yl}methanesulfonamide]	negative	21 nM	57%	improved metabolic stability	601%
